{"source": "paper PMC8043206", "about": "(ACS Pharmacology & Translational Science, 2021)", "tested_on": "SARS-CoV-2-S pseudotyped particles", "assay_type": "cell-based", "conditions": "Calu-3 cells", "data": [{"smiles": "CCOC(=O)c1ccc(OC(=O)CCCCCNC(=N)N)cc1", "note": "[NCGC00025297, Gabexate]", "values": [{"measurement": "Activity on viral entry in PP entry assay (in words)", "result": "did not exhibit an activity"}]}, {"smiles": "N=C(N)c1ccc2cc(OC(=O)c3ccc(N=C(N)N)cc3)ccc2c1", "note": "[NCGC00160398, Nafamostat]", "values": [{"measurement": "Activity on viral entry in PP entry assay (in words)", "result": "high potency and efficacy"}]}, {"smiles": "CN(C)C(=O)COC(=O)Cc1ccc(OC(=O)c2ccc(NC(=N)N)cc2)cc1", "note": "[NCGC00167526, Camostat]", "values": [{"measurement": "Activity on viral entry in PP entry assay (in words)", "result": "high potency and efficacy"}]}, {"smiles": "COC(=O)[C@H](Cc1cccc(C(=N)N)c1)[C@@H](C)NC(=O)c1ccc(-c2cc[n+]([O-])cc2)cc1", "note": "[NCGC00378763, Otamixaban]", "values": [{"measurement": "Activity on viral entry in PP entry assay (in words)", "result": "efficient activity"}]}, {"smiles": "C=Cc1cc(C(=O)Nc2ccc(C(=N)N)cc2)c(-c2ccc(C(=O)NCC3CC3)nc2C(=O)O)cc1OC", "note": "[NCGC00522636, Avoralstat]", "values": [{"measurement": "Activity on viral entry in PP entry assay (in words)", "result": "comparable inhibition activity to camostat"}]}]}
